Data reported in patent US7951964B2, “Fluorine-containing boronic acid ester compound and method for producing the same” (Unimatec Co., Ltd., priority 2008, dated 2011).

Assay: Solubility in the fluorine-containing organic solvent 1,3-bis(trifluoromethyl)benzene (maximum amount giving a homogeneous solution, judged visually)
Conditions: 10 ml of 1,3-bis(trifluoromethyl)benzene, 25° C., stirred, visually measured

SMILES	solubility in 1,3-bis(trifluoromethyl)benzene
CC1(C)OB(c2cc(B3OC(C)(C)C(C)(C)O3)cc(B3OC(C)(C)C(C)(C)O3)c2)OC1(C)C [1,3,5-tris(4,4,5,5-tetramethyl-1,3,2-dioxaborolan-2-yl)benzene]	0.20 g/10 ml solvent
OB(O)c1ccc(B(O)O)cc1 [1,4-benzene diboronic acid]	insoluble
CC1(C)OB(c2ccc(B3OC(C)(C)C(C)(C)O3)cc2)OC1(C)C [1,4-bis(4,4,5,5-tetramethyl-1,3,2-dioxaborolan-2-yl)benzene]	0.17 g/10 ml solvent
CC1(C)OB(c2cc(OCCCC(F)(F)C(F)(F)C(F)(F)C(F)(F)C(F)(F)C(F)(F)F)cc(B3OC(C)(C)C(C)(C)O3)c2)OC1(C)C [Example, 1-(1H,1H,2H,2H,3H,3H-perfluorononane-1-yloxy)-3,5-bis-(4,4,5,5-tetramethyl-1,3,2-dioxaborolan-2-yl)benzene]	5.0 g/10 ml solvent
